Source: US20080312197A1, “PHARMACEUTICAL PRODUCTS CONTAINING HORMONES AND A 25-HYDROXY VITAMIN D COMPOUND” (priority 2007, published 2008)

Tests used:
[1] = test system: Vitamin D 24 hydroxylase (24-OH); assay: Western blot of 24 hydroxylase expression in OVCAR 3 cells; type: cell-based, human; details: 18 hours, 100 nM Vitamin D, 25 μM progesterone, 25 μM Genistein
Text: Protein was then extracted from the cells and 24-OH expression was the measured via Western Blot, and the degree of expression (band density) measured via a densitometer.

[2] = cited from earlier work
24 hydroxylase (24-OH) = target: T1, 24 hydroxylase (24-OH) (Homo sapiens, UniProt Q07973); details: shown by others; cited from earlier work
T1 sequence (Q07973 36-514): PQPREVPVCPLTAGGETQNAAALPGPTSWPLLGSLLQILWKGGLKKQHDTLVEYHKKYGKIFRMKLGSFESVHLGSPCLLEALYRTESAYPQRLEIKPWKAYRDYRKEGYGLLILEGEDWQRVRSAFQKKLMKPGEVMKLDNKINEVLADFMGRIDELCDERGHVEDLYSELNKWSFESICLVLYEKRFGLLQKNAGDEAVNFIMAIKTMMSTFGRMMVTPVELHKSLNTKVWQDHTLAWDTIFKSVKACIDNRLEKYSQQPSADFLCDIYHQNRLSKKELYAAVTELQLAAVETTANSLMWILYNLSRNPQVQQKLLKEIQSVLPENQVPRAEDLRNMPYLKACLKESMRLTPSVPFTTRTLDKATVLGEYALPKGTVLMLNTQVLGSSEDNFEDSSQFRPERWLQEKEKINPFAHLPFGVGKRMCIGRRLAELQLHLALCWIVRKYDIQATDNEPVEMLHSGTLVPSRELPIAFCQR

HIO-118V cells [3] = assay: MTS cell viability assay, immortalized human ovarian epithelial cells (HIO-118V); type: cell-based
Procedure: (§1) Progesterone and Vitamin D (1,25(OH)2 D3) were tested to determine their effect on cell lines derived from the human ovarian surface epithelium. […] This is shown in FIGS. 1-3 in both ovarian cancer cell lines (OVCAR 5 and OVCAR 3) as well as an immortalized cell cultures derived from the normal human ovarian epithelium (HIO-118V). There is a marked impact on cell viability when the two agents are combined and administered at a dosage that has a marginal impact for each agent given alone.

OVCAR 3 cells = assay: MTS cell viability assay, OVCAR 3 cells; type: cell-based, human
Procedure: as §1

HIO-118V cells [4] = assay: Apoptosis by TUNEL method, HIO-118V cells; type: cell-based, human; details: 45 uM progesterone, 1 uM Vitamin D
Procedure: In experiments to further understand the effect of progestin and vitamin D on cell viability, experiments were conducted to determine how progestin, vitamin D, and the combination act to induce apoptosis. In the experiment cells were incubated for 28 and 48 hours in the hormonal treatments as indicated and assessed for TUNEL reactivity. In these experiments, Apoptosis (TUNEL) data shown in conditions in which inhibitory effects via MTS were shown. In the example shown in FIG. 4, OVCAR 3 cells undergo a 7-fold increase in apoptosis at 48 hrs when treated with a combination of progesterone and vitamin D. HIO-118V cells show a 1.7-fold increase in apoptosis with 45 uM progesterone alone and a 1.9-fold increase with the combination of 1 uM Vitamin D and 45 uM progesterone.

OVCAR 5 cells = assay: MTS cell viability assay, OVCAR 5 cells; type: cell-based, human
Procedure: as §1

[5] = 0.5 micrograms per day or 5 micrograms per week; cited from earlier work

## 1,25-dihydroxyvitamin D3 [Vitamin D (1,25(OH)2 D3)]
[1]
  24-OH expression (Western blot, band density): markedly induced

## C=C1CC[C@H](O)C/C1=C/C=C1\CCC[C@]2(C)[C@@H]([C@H](C)CCCC(C)(C)O)CC[C@@H]12 [25(OH) D3, 25-hydroxyvitamin D3]
[2]
  half life after oral administration: approximately 2 weeks

## O=c1c(-c2ccc(O)cc2)coc2cc(O)cc(O)c12 [Genistein, genistein]
24 hydroxylase (24-OH)
  inhibition of 24-OH: inhibit 24-OH

## CC(=O)[C@H]1CC[C@H]2[C@@H]3CCC4=CC(=O)CC[C@]4(C)[C@H]3CC[C@]12C [Progesterone, progesterone]
[1]
  24-OH expression (Western blot, band density): causes both degradation and decreases production of 24 hydroxylase
HIO-118V cells [3]
  cell viability (MTS assay): inhibit cell viability in a dose response fashion
OVCAR 3 cells
  cell viability (MTS assay): inhibit cell viability in a dose response fashion
HIO-118V cells [4]
  increase in apoptosis (TUNEL): 1.7 fold
OVCAR 5 cells
  cell viability (MTS assay): inhibit cell viability in a dose response fashion

## C=C1/C(=C\C=C2/CCC[C@]3(C)[C@@H]([C@H](C)CCCC(C)(C)O)CC[C@@H]23)C[C@@H](O)C[C@@H]1O [Vitamin D (1,25(OH)2 D3), 1,25-dihydroxyvitamin D3]
[5]
  individuals developing hypercalcemia: 1-3%
HIO-118V cells [3]
  cell viability (MTS assay): inhibit cell viability in a dose response fashion
OVCAR 3 cells
  cell viability (MTS assay): inhibit cell viability in a dose response fashion
[2]
  half life after oral administration: 5 to 8 h
[2]; serum
  serum half-life: 6 to 8 h
OVCAR 5 cells
  cell viability (MTS assay): inhibit cell viability in a dose response fashion
